The target in data set [1] is Bromodomain-containing protein 4 (Homo sapiens, UniProt O60885). As to the kind of experiment: Inhibition of N-terminal His6-tagged recombinant human BRD4 (44 to 168 residues) expressed in Escherichia coli BL21 (DE3) incubated for 60 mins by TR-FRET assay. For orientation: Time-resolved FRET reads energy transfer from a long-lived donor to a nearby acceptor.
Data set [2] can be described thus: Metabolic stability in alamethicin treated human liver microsomes assessed as half life pretreated for 5 mins followed by NADPH addition and measured up to 45 mins by LC-MS/MS analysis. Format: ADME, Microsome. Particulars: time < 50 min. Background: Liver microsomes are vesicles of endoplasmic reticulum, rich in cytochrome P450 enzymes.
The nature of data set [3]: Metabolic stability in alamethicin treated CD-1 mouse liver microsomes assessed as half life pretreated for 5 mins followed by NADPH addition and measured up to 45 mins by LC-MS/MS analysis. In kind it is ADME, Microsome. As to conditions: time < 50 min.
Data set [4] is described as follows: Metabolic stability in alamethicin treated Sprague-Dawley rat liver microsomes assessed as half life pretreated for 5 mins followed by NADPH addition and measured up to 45 mins by LC-MS/MS analysis. In kind it is ADME, Microsome. As to conditions: time < 50 min.
Data set [5] in a line: Inhibition of c-MYC expression in human JJN-3R cells measured after 4 hrs. Format: functional, cell-based.
Data set [6] is described as follows: Antiproliferative activity against human JJN-3R cells assessed as inhibition of cell proliferation measured after 72 hrs by MTS assay. Format: functional, cell-based. On the technique in general: Tetrazolium assays rely on reduction of a dye to a coloured formazan, in cell work by metabolically active cells.
The nature of data set [7]: Metabolic stability in alamethicin treated Beagle dog liver microsomes assessed as half life pretreated for 5 mins followed by NADPH addition and measured up to 45 mins by LC-MS/MS analysis. As to conditions: time < 50 min. In kind it is ADME, Canis lupus familiaris, Microsome.
Data set [8] can be described thus: Metabolic stability in alamethicin treated cynomologus monkey liver microsomes assessed as half life pretreated for 5 mins followed by NADPH addition and measured up to 45 mins by LC-MS/MS analysis. In kind it is ADME, Macaca fascicularis, Microsome. Particulars: cynomolgus monkey, time < 50 min.
Data set [9] is described as follows: Metabolic stability in alamethicin treated CD-1 mouse liver microsomes assessed as half life pretreated for 5 mins followed by UDPGA addition and measured up to 45 mins by LC-MS/MS analysis. Format: ADME, Microsome. As to conditions: time < 50 min.
Data set [10] in a line: Metabolic stability in alamethicin treated cynomologus monkey liver microsomes assessed as half life pretreated for 5 mins followed by UDPGA addition and measured up to 45 mins by LC-MS/MS analysis. Format: ADME, Macaca fascicularis, Microsome. Particulars: cynomolgus monkey, time < 50 min.
Data set [11] is described as follows: Metabolic stability in alamethicin treated Sprague-Dawley rat liver microsomes assessed as half life pretreated for 5 mins followed by UDPGA addition and measured up to 45 mins by LC-MS/MS analysis. In kind it is ADME, Microsome. As to conditions: time < 50 min.
Data set [12] can be described thus: Efflux ratio of apparent permeability across […] in human Caco-2 cells after 2 hrs by liquid scintillation counting analysis. Format: ADME, cell-based. Particulars: caco-2, 2 h.
Data set [13] can be described thus: Metabolic stability in alamethicin treated human liver microsomes assessed as half life pretreated for 5 mins followed by UDPGA addition and measured up to 45 mins by LC-MS/MS analysis. Format: ADME, Microsome. Particulars: time < 50 min.
A short description of data set [14]: Metabolic stability in alamethicin treated Beagle dog liver microsomes assessed as half life pretreated for 5 mins followed by UDPGA addition and measured up to 45 mins by LC-MS/MS analysis. Format: ADME, Canis lupus familiaris, Microsome. Particulars: Beagle, liver microsomes, time < 50 min.

The IC50 is the concentration at which inhibition is half-maximal. Usually half-life stands for how long it takes for the measured level to halve.

Some results are limits rather than exact numbers.

`COC(C)(C)c1ccc2c3ncc(-c4c(C)nnn4C)cc3n([C@H](c3ccccc3)C3CCOCC3)c2c1`: the IC50 in [1] worked out at 1.4 nM; in data set [5], 3 nM; in data set [6], 7 nM. Also, the half-life is 3 min in data set [2], 7 min in data set [3] and 18 min in data set [4].

Turning to `[2H]C([2H])([2H])c1nnn(C)c1-c1cnc2c3c(OC)cc(C(C)(C)O)cc3n([C@H](c3ccccc3)C3CCOCC3)c2c1`, the IC50 was 1 nM in data set [1], 1 nM in [5] and 5 nM in data set [6]. Further, the half-life in data set [2] was 23 min; in [7] it was 73 min; in [3], 28 min; in data set [4], 35 min; in data set [8], 11 min; in data set [9], 120 min. The half-life in [10] came out at 120 min; in data set [11], 120 min; in [13], 98 min; in [14] it was 120 min. For the same compound, the Ratio in data set [12] was > 35.

Consider `[2H]C([2H])([2H])c1nnn(C)c1-c1cnc2c3ccc(C(C)(C)O)cc3n([C@H](c3ccccc3)C3CCOCC3)c2c1`, for which the IC50 stood at 1.2 nM in data set [1], 0.8 nM in data set [5] and 6 nM in data set [6]. In addition, the half-life in [2] worked out at 59 min; in [7], 37 min; in [3], 25 min; in data set [4], 43 min; in data set [8] it was 29 min. For the same compound, the Ratio in data set [12] is listed as 6.1.

As for `Cc1nnn(C)c1-c1cnc2c3ccc(S(C)(=O)=O)cc3n([C@H](c3ccccc3)C3CCOCC3)c2c1`, the results for the IC50 in data set [1], in data set [5] and in data set [6] were 0.9 nM, 1.2 nM and 5 nM, respectively. Also, the half-life is 41 min in [2]; 11 min in data set [7]; 10 min in data set [3]; 44 min in data set [4]; 12 min in [8]. Besides, in data set [12], the Ratio turned out to be 7.3.

For the compound `[2H]C([2H])([2H])c1nnn(C)c1-c1cnc2c3ccc(S(C)(=O)=O)cc3n([C@H](c3ccccc3)C3CCOCC3)c2c1`, the values for the IC50 in data set [1], in data set [5] and in data set [6] were 1.7 nM, 2 nM and 13 nM, respectively. In addition, the half-life was found to be 75 min in data set [2]; 34 min in data set [7]; 22 min in [3]; 47 min in data set [4]; 40 min in data set [8]. Further, in data set [12], the Ratio amounted to 4.5.

In the case of `[2H]C([2H])([2H])c1nnn(C)c1-c1cnc2c3cc(Cl)c(C(C)(C)O)cc3n([C@H](c3ccccc3)C3CCOCC3)c2c1`, the IC50 amounted to 2.2 nM in data set [1], 2 nM in data set [5] and 3 nM in [6]. Besides, the half-life in data set [2] worked out at 38 min; in data set [7] it was 33 min; in data set [3] it was 34 min; in [4], 39 min; in data set [8], 45 min; in data set [9] it was 120 min. Besides, the half-life in data set [10] came out at 120 min; in [11], 120 min; in data set [13], 110 min; in data set [14] it was 120 min. In data set [12], the Ratio is recorded as 1.4.

As to `[2H]C([2H])([2H])c1nnn(C)c1-c1cnc2c3c(F)cc(C(C)(C)O)cc3n([C@H](c3ccccc3)C3CCOCC3)c2c1`, the IC50 in data set [1] was determined as 8 nM; in data set [5], 4.5 nM; in [6] it was 10 nM. For the same compound, the half-life came to 63 min in data set [2]; 40 min in [7]; 48 min in data set [3]; 62 min in [4]; 32 min in data set [8]; 120 min in data set [9]. The half-life in data set [10], in data set [11], in [13] and in data set [14] was 120 min each time. Moreover, the Ratio in [12] worked out at 9.7.

Regarding `Cc1nnn(C)c1-c1cnc2c3ccc(C(C)(O)C(F)(F)F)c(F)c3n([C@H](c3ccccc3)C3CCOCC3)c2c1` (stereo not given in full), the IC50 in data set [1] amounted to 3 nM; in [5], 1.5 nM; in [6], 9 nM. Further, the half-life in data set [2] worked out at 40 min; in [7], 42 min; in data set [3], 58 min; in data set [4], 49 min; in data set [8], 49 min; in data set [9] it was 120 min. The half-life in [10] is 120 min; in [11], 51 min; in [13], 120 min; in data set [14], 120 min. The Ratio in [12] worked out at 1.1.

Consider `Cc1nnn(C)c1-c1cnc2c3ccc(C(C)C)cc3n([C@H](c3ccccc3)C3CCOCC3)c2c1`, for which the IC50 in data set [1] was found to be 4 nM; in [5] it was 9 nM; in [6] it was 39 nM.

On to `[2H]C([2H])([2H])c1nnn(C)c1-c1cnc2c3ccc(C(C)(C)O)c(F)c3n([C@H](c3ccccc3)C3CCOCC3)c2c1`, for which the values for the IC50 in data set [1], in [5] and in [6] were 1 nM, 1.5 nM and 5 nM, respectively. The half-life stood at 67 min in data set [2]; 69 min in data set [7]; 42 min in data set [3]; 38 min in [4]; 29 min in data set [8]; 120 min in [9]. The half-life is 120 min in data set [10], 6 min in data set [11], 120 min in data set [13] and 120 min in data set [14]. For the same compound, in data set [12], the Ratio was found to be 1.4.

With `COc1cc2c3ncc(-c4c(C)nnn4C)cc3n([C@H](c3ccccc3)C3CCOCC3)c2cc1C(C)(C)O`, the IC50 in data set [1] is 0.8 nM; in data set [5], 1 nM; in data set [6] it was 4 nM. The half-life in data set [2] was 9 min; in [7], 9 min; in data set [3], 5 min; in data set [4], 13 min; in data set [8], 1 min; in data set [9], 120 min. Also, in [12], the Ratio amounted to 1.3.

On to `[2H]C([2H])([2H])c1nnn(C)c1-c1cnc2c3ccc(C(C)(C)O)c(Cl)c3n([C@H](c3ccccc3)C3CCOCC3)c2c1`, for which the IC50 in data set [1] was determined as 1.1 nM; in data set [5], 1.2 nM; in data set [6], 7 nM. Besides, the half-life was 56 min in data set [2]; 35 min in data set [7]; 25 min in [3]; 35 min in [4]; 30 min in [8]; 120 min in data set [9]. In addition, the half-life in data set [10] amounted to 120 min; in data set [11], 6 min; in data set [13], 120 min; in data set [14], 120 min. Moreover, the Ratio in [12] is recorded as 1.2.

The record behind these values is ChEMBL document CHEMBL5120938, “Development of BET Inhibitors as Potential Treatments for Cancer: Optimization of Pharmacokinetic Properties” (ACS Med Chem Lett, 2022).
